SMILES strings stand for the structures.

The molecule `NC(=O)C(=Cc1c[nH]c2ncccc12)c1ccccc1` [compound 299, 2-phenyl-3-(1H-pyrrolo[2,3-b]pyridin-3-yl)-2-propenamide] gave a melting point of 222 to 224 °C.
With `O=C(O)C(=Cc1c[nH]c2ncccc12)c1ccccc1` [compound 300, 2-phenyl-3-(1H-pyrrolo[2,3-b]pyridin-3-yl)-2-propenoic acid] the figure was over 230 °C; with `CCCCNC(=O)C(=Cc1c[nH]c2ncccc12)c1ccccc1` [compound 301, N-butyl-2-phenyl-3-(1H-pyrrolo[2,3-b]pyridin-3-yl)-2-propenamide], 177 to 179 °C (dec.).
